According to publication PMC6273431, “The Structure–Antimicrobial Activity Relationships of a Promising Class of the Compounds Containing the N-Arylpiperazine Scaffold” (Molecules, 2016):
Where two headings read alike, the source gives them in different places.

Experiments:
[1] = set-up: method as in PMID 16209439, PMID 16209439, doi:10.2478/s11696-006-0007-y; conditions: octan-1-ol/phosphate buffer (pH = 7.4); cited from earlier work
M. marinum CAMP 5644 = assay: antimycobacterial MIC, broth dilution micromethod; type: cell-based; conditions: Mycobacterium marinum, CAMP5644, 504 h, 21 days at 28 °C
[2] = set-up: method as in PMID 16209439, PMID 16209439; conditions: potentiometric titration; cited from earlier work
[3] = system: methicillin-resistant Staphylococcus aureus 63718; assay: antibacterial MIC, microtitration broth method; type: cell-based; conditions: MRSA, 37 °C
Method: (§1) Prior to the testing, each strain was transferred into a nutrient agar (Oxoid Limited, Basingstoke, UK), which was enriched with 5% defibrinated bovine blood.
(§2) The MICs were determined by the microtitration broth method in the cation-adjusted Mueller-Hinton broth (Becton Dickinson, Oxford, UK) according to an international interdisciplinary Clinical Laboratory Standard Institute guidelines.
(§3) The checkerboard was inoculated by the bacterial inocula, which were prepared in a phosphate buffered saline solution with the pH = 7.2–7.3 to simulate physiological pH. The final concentration of each inoculum in the final volume of 100 μL in the wells was approximately 7.5 × 10^6 CFU/mL. Drug-free controls, sterility controls and the controls consisted of the broth with DMSO were included. The determination of the results was performed visually after 24 h of static incubation in the darkness at 37 °C in an aerobic atmosphere.
(§4) To ensure reproducibility, each antibacterial MIC assay was performed triplicate on separate occasions.

[4] = system: Enterococcus faecalis ATCC 29212; assay: antibacterial MIC, microtitration broth method; type: cell-based; conditions: 37 °C
Method: as §1, §2, §3, §4

[5] = system: Staphylococcus aureus ATCC 29213; assay: antibacterial MIC, microtitration broth method; type: cell-based; conditions: 37 °C
Method: as §1, §2, §3, §4

[6] = system: Escherichia coli ATCC 25922; assay: antibacterial MIC, microtitration broth method; type: cell-based; conditions: 37 °C
Method: as §1, §2, §3, §4

M. smegmatis ATCC 700084 = assay: antimycobacterial MIC, broth dilution micromethod; type: cell-based; conditions: Mycolicibacterium smegmatis, ATCC700084, 72 h, 3 days at 37 °C
M. kansasii DSM 44162 = assay: antimycobacterial MIC, broth dilution micromethod; type: cell-based; conditions: Mycobacterium kansasii, DSM44162, 168 h, 7 days at 37 °C
[7] = system: Candida parapsilosis CCM 8260; assay: candidacidal MIC, microdilution method; type: cell-based; conditions: Lodderomyces parapsilosis, CCM8260, 48 h, 37 °C
Method: (§5) In order to provide a look into the potential usefulness of the derivatives 5a–l as the candidates for a development of anti-yeast (candidacidal) agents, they were in vitro tested against Candida albicans CCM 8261 (CA 8261), C. krusei CCM 8271 (CK 8271) and C. parapsilosis CCM 8260 (CP 8260). The yeasts were obtained from the Czech Collection of Microorganisms (Masaryk University, Faculty of Science, Brno, Czech Republic). They were grown and kept on Sabouraud agar (Oxoid Limited, Basingstoke, UK).
(§6) For the screening, the microdilution method according to the Antimicrobial Susceptibility Testing Protocols was applied. The inoculum was prepared from the cultures grown on Sabouraud agar. With the sterile solution of NaCl, the inoculum was prepared to the 0.5 McFarland units using the Densi-La-Meter densitometer (LIAP, Riga, Latvia) and diluted a thousand‑fold with the Roswell Park Memorial Institute (RPMI) 1640 medium (Sigma-Aldrich, Darmstadt, Germany). Prepared suspension was used for an inoculation of microtitre plates. Final concentration in wells ranged from 5.0 × 10^2 CFU/mL to 2.5 × 10^3 CFU/mL. […] For the determination of the MICs, the stock solutions of all the tested compounds were diluted in the microtitre checkerboard to the final concentration varying from 128 μg/mL to 0.125 μg/mL. Drug-free control, sterility control and the control consisted of a medium and DMSO alone were included. Inoculated microtitre plates were incubated for 48 h in the darkness at 37 °C in an aerobic atmosphere. The results were estimated against static light.
(§7) The MIC was defined as the lowest concentration of the tested compound at which no visible growth was observed. To ensure reproducibility of the results, each candidacidal MIC assay was performed triplicate on separate occasions. It was important to note that all the MICs from the in vitro antimicrobial screening were expressed in μg/mL units and were available in Tables S3 and S4 (Supplementary Materials).

[8] = system: Candida albicans CCM 8261; assay: candidacidal MIC, microdilution method; type: cell-based; conditions: Candida albicans, CCM8261, 48 h, 37 °C
Method: as §5, §6, §7

Candida krusei CCM 8271 = assay: candidacidal MIC, microdilution method; type: cell-based; conditions: Pichia kudriavzevii, CCM8271, 48 h, 37 °C
Method: as §5, §6, §7

[9] = system: Mycobacterium avium subsp. paratuberculosis CIT03; assay: antimycobacterial MIC, MB broth, alamarBlue; type: cell-based; conditions: 264 h, read-out: MIC MAP
Method: The Mycobacterium avium subsp. paratuberculosis CIT03 strain was grown in the Middlebrook (MB) broth, supplemented with the Oleic-Albumin-Dextrose-Catalase Supplement (OADC, Becton Dickinson, Oxford, UK) and the mycobactin J (2 μg/mL). The commercially available siderophore mycobactin J reduced the incubation period of M. avium subsp. paratuberculosis in a complex medium when compared to the medium containing the mycobactin P as a growth factor.
The identification of the isolate was performed using biochemical and molecular protocols. At a log phase growth, a culture sample (10 mL) was centrifuged at 15,000 rpm/20 min using a bench top centrifuge (Model CR 4-12, Jouan Inc., London, UK). Following removal of the supernatant, the pellet was washed in fresh Middlebrook 7H9GC broth and re-suspended in fresh supplemented MB broth (10 mL). The turbidity was adjusted to match the McFarland standard No. 1 containing approximately 3.0 × 10^8 Colony Forming Units (CFU) with the MB broth. Further 1:20 dilution of the culture was performed in the MB broth. The susceptibility of given mycobacterial species was investigated in a 96-well plate format. In those experiments, sterile deionised water (300 μL) was added to all outer-perimeter wells of the plates to minimize an evaporation of the medium in the test wells during the incubation process. Each evaluated compound (100 μL) was incubated with the mycobacterial species (100 μL). The dilutions of a particular compound were prepared in triplicate. For all inspected derivatives, final concentrations ranged from 1000 μg/mL to 60 μg/mL. All compounds were prepared in dimethyl sulfoxide (DMSO; Sigma-Aldrich, Irvine, UK) and subsequent dilutions were made in the supplemented MB broth. The plates were sealed with a parafilm and incubated at 37 °C for 11 days. Following the incubation, a 10% addition of a water‑soluble dye, the alamarBlue reagent (AbD Serotec, Kidlington, UK), was mixed into each well. Absorbance readings at 570 nm and 600 nm were taken, initially for background subtraction and after 24 h re-incubation. The subtraction is necessary for strongly coloured compounds, where the colour may interfere with the interpretation of any colour change. For non-interfering compounds, a blue colour in a well was interpreted as an absence of a growth and a pink colour was scored as a growth.
The minimum inhibitory concentration (MIC) was defined as the lowest concentration of the compound at which no visible bacterial growth was observed. In other words, the MIC was the lowest concentration that prevented a visual colour change from blue to pink. The MIC value has been routinely and widely used in bacterial assays and it has been a standard detection limit according to the Clinical and Laboratory Standards Institute. The clinically used antimycobacterial drugs INH and RIF were applied as the standards.

Compound | log Pexp [1] | MIC (M. marinum CAMP 5644) | MIC (M. marinum CAMP 5644; Table S3) | pKa [2] | MIC ([3]; 24 h) | MIC ([3]; Table S4, 24 h) | MIC ([4]; ATCC29212, 24 h) | MIC ([4]; ATCC29212, Table S4, 24 h) | MIC ([5]; ATCC29213, 24 h) | MIC ([5]; ATCC29213, Table S4, 24 h) | MIC ([6]; ATCC25922, 24 h) | MIC ([6]; ATCC25922, Table S4, 24 h) | MIC (M. smegmatis ATCC 700084) | MIC (M. smegmatis ATCC 700084; Table S3) | MIC (M. kansasii DSM 44162) | MIC (M. kansasii DSM 44162; Table S3) | MIC [7] | MIC ([7]; Table S4) | MIC [8] | MIC ([8]; Table S4) | also measured
COc1cccc(NC(=O)OCC(O)CN2CCN(c3ccc(F)cc3)CC2)c1 (stereo not drawn) [Compound 5i] | 3.25 | 291 µM | 128 µg/mL | 6.55 | > 582 µM | > 256 µg/mL | > 582 µM | > 256 µg/mL | > 582 µM | > 256 µg/mL | > 582 µM | > 256 µg/mL | 582 µM | 256 µg/mL | 145 µM | 64 µg/mL | > 291 µM | > 128 µg/mL | > 291 µM | > 128 µg/mL | MIC (Candida krusei CCM 8271): > 291 µM; MIC (Candida krusei CCM 8271; Table S4): > 128 µg/mL; MIC ([9]; 37 °C, 11 days): 1140 µM; MIC [9]: 500 µg/mL
CCOc1cccc(NC(=O)OCC(O)CN2CCN(c3ccc(F)cc3)CC2)c1.Cl (stereo not drawn) [Compound 5j, 1-[3-(3-ethoxyphenylcarbamoyl)oxy-2-hydroxypropyl]-4-(4-fluorophenyl)piperazin-1-ium chloride] | 3.59 | 141 µM | 64 µg/mL | 6.31 | > 564 µM | > 256 µg/mL | > 564 µM | > 256 µg/mL | > 564 µM | > 256 µg/mL | > 564 µM | > 256 µg/mL | 282 µM | 128 µg/mL | 17.6 µM | 8 µg/mL | > 282 µM | > 128 µg/mL | > 282 µM | > 128 µg/mL | MIC (Candida krusei CCM 8271): > 282 µM; MIC (Candida krusei CCM 8271; Table S4): > 128 µg/mL; MIC ([9]; 37 °C, 11 days): 551 µM; MIC [9]: 250 µg/mL
COc1ccc(NC(=O)OCC(O)CN2CCN(c3ccc(F)cc3)CC2)cc1 (stereo not drawn) [Compound 5k] | 3.42 | 582 µM | 256 µg/mL | 7.24 | > 582 µM | > 256 µg/mL | > 582 µM | > 256 µg/mL | > 582 µM | > 256 µg/mL | > 582 µM | > 256 µg/mL | 582 µM | 256 µg/mL | 291 µM | 128 µg/mL | > 291 µM | > 128 µg/mL | > 291 µM | > 128 µg/mL | MIC (Candida krusei CCM 8271): > 291 µM; MIC (Candida krusei CCM 8271; Table S4): > 128 µg/mL; MIC ([9]; 37 °C, 11 days): 2270 µM; MIC [9]: 1000 µg/mL
CCOc1ccc(NC(=O)OCC(O)CN2CCN(c3ccc(F)cc3)CC2)cc1 (stereo not drawn) [Compound 5l] | 3.28 | 282 µM | 128 µg/mL | 7.18 | > 564 µM | > 256 µg/mL | > 564 µM | > 256 µg/mL | > 564 µM | > 256 µg/mL | > 564 µM | > 256 µg/mL | 564 µM | 256 µg/mL | 564 µM | 256 µg/mL | > 282 µM | > 128 µg/mL | > 282 µM | > 128 µg/mL | MIC (Candida krusei CCM 8271): > 282 µM; MIC (Candida krusei CCM 8271; Table S4): > 128 µg/mL; MIC ([9]; 37 °C, 11 days): 2200 µM; MIC [9]: 1000 µg/mL
